# Assay results reported in patent US9796725B2, “Pyrazolopyrimidinyl inhibitors of ubiquitin-activating enzyme” (Millennium Pharmaceuticals, Inc., priority 2012, dated 2017).
# Columns and labels:
# [1] = target: recombinant human UAE (Homo sapiens (Human), UniProt P22314); experiment: Ubiquitin Activating Enzyme (UAE) HTRF Assay
# Experimental: After incubation for 120 minutes, quantification of the FRET is performed on the Pherostar (BMG).
# For compounds whose values are marked with an asterisk (*), mouse UAE was used. For all other compounds, human UAE was used.
# [2] = tested on: mouse acute myeloid leukemia (AML model); conditions: cited from earlier work
# recombinant human UAE, sequence (P22314 whole entry): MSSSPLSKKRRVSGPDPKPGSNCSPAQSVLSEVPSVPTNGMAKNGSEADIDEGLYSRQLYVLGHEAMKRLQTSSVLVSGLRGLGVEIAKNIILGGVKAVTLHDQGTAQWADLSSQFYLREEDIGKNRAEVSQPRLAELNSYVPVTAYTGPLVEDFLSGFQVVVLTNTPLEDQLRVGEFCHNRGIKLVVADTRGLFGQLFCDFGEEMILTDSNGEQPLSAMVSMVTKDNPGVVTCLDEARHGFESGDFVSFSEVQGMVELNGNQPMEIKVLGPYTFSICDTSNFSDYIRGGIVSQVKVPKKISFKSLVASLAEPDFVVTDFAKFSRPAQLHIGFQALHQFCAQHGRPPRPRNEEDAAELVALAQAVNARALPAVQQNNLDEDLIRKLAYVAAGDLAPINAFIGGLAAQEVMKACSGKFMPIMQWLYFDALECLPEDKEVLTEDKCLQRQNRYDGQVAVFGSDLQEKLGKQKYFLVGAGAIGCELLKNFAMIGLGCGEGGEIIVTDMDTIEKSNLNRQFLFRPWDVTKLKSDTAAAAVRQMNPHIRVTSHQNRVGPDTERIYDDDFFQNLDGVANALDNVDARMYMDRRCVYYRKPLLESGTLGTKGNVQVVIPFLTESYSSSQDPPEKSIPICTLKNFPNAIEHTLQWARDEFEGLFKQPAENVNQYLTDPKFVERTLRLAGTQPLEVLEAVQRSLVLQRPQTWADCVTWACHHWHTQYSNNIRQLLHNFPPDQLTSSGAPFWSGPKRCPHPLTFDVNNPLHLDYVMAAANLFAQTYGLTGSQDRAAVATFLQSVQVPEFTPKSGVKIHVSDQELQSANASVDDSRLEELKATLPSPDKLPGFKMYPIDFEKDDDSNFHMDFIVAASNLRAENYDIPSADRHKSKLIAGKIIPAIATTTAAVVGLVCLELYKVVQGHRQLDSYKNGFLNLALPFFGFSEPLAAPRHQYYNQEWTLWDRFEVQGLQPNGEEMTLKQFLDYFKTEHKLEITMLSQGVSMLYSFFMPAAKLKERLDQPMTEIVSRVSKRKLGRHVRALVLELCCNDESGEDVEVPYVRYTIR
IC50 [1],SMILES,anti-tumor activity [2]
< 10 nM,"NS(=O)(=O)OC[C@H]1C[C@@H](Nc2ccnc3cc(-c4cccc5cc(C(=O)O)ccc45)nn23)[C@H](O)[C@@H]1O (relative stereo) [Compound I-099, (rac)-rel-5-[7-({(1R,2S,3R,4R)-2,3-dihydroxy-4-[(sulfamoyloxy)methyl]cyclopentyl}amino)pyrazolo[1,5-a]pyrimidin-2-y1]-2-naphthoic acid]",
< 10 nM,"COc1ccc(C(C)(C)C)cc1-c1cc2nccc(N[C@@H]3C[C@H](COS(N)(=O)=O)[C@@H](O)[C@H]3O)n2n1 (racemic) [Compound I-063, (rac)-((1R,2R,3S,4R)-4-{[2-(5-tert-butyl-2-methoxyphenyl)pyrazolo[1,5-a]pyrimidin-7-yl]amino}-2,3-dihydroxycyclopentyl)methyl rel-sulfamate]",
,O=C1NN(c2ccc(F)c(Cl)c2)C(=O)/C1=C\c1ccc([N+](=O)[O-])o1 [PYZD-4409],demonstrated anti-tumor activity
